Ends that are not written are not given here.
Legend:
[1] = system: OB1-MHC class II GFP B cells; experiment: Peptide internalization by confocal microscopy, OB1 MHC II GFP B cells; type: cell-based, mouse; settings: Alexa Fluor 647-conjugated versions, 1 µM, 10 min, washed, confocal microscopy (Fig. 1 F)
OB1 B cells = experiment: ERK1/2 phosphorylation in OB1 B cells; type: cell-based, mouse; settings: 0.5 µM, 1 and 3 min; AGA 17-mer 3 min (Fig. 2 B)
[2] = Solubility and aggregation of peptide; type: physicochemical

| Sequence | antigen internalization in OB1-MHC class II GFP B cells [1] | ERK1/2 phosphorylation, nested peptides (OB1 B cells) | water solubility [2] |
| --- | --- | --- | --- |
| FDKLPGAGASIEAQGGK [AGA 17-mer] | did not detect any | did not stimulate | – |
| FDKLPGFGDSIEAQGGK [FGD 17-mer] | – | – | water-soluble |

— publication PMC3920557 (The Journal of Experimental Medicine, 2014)
